# Test results as given in patent US11452725B2, “Chiral diaryl macrocycles and uses thereof” (TURNING POINT THERAPEUTICS, INC., priority 2015, dated 2022).
# System: CD44
# Test: CD44 expression by immunoblotting in H2228 cells
# Assay type: cell-based, human
# Details: 48 hours treatment, 0-1000 nM
# Description: NSCLC cell line H2228 (harboring endogenous EML4-ALK fusion gene) was cultured in RPMI medium supplemented with 10% fetal bovine serum and 100 U/mL of penicillin/streptomycin. Ba/F3 and NIH3T3 cells stably expressing ROS1, or TRKA, or TRKB, or TRKC (WT or mutant) were cultured as mentioned above. […] Cells were collected after treatment and lysed in RIPA buffer (50 mM Tris, pH 7.4, 150 mM NaCl, 1% NP-40, 0.5% Deoxycholate, 0.1% SDS) supplemented with 10 mM EDTA, 1× Halt protease and phosphatase inhibitors (Thermo Scientific). Protein lysates (approximately 20 μg) was resolved on 4-12% Bolt Bis-Tris precasted gels with MES running buffer (Life Technologies), transferred to nitrocellulose membranes using Trans-Blot Turbo Transfer System (Bio-Rad) and detected with antibodies targeting phosphorylated phosphorylated ROS1 and total ROS1 (Cell Signaling Technology), phosphorylated TRK A/B (Cell Signaling Technology), total TRKA antibody (Santa Cruz Biotechnology), phosphorylated SRC Y416 (Cell Signaling Technology), total SRC (Cell Signaling Technology), phosphorylated FAK Y576/577 (Cell Signaling Technology), total FAK (Cell Signaling Technology), phosphorylated paxillin Y118 (Cell Signaling Technology), total paxillin (Cell Signaling Technology), phosphorylated EGFR and total EGFR, CD44, and Tubulin (Sigma). […]
smiles,measurement,value
"C[C@@H](Oc1cc(-c2cnn(C3CCNCC3)c2)cnc1N)c1c(Cl)ccc(F)c1Cl [crizotinib, reference compound]",CD44 expression level,does not show down-regulation of CD44 expression
